Here are results for 73 compounds from PubChem BioAssay AID179 (DTP/NCI, 2004).

The assay has as its system CEM cells HIV-1 protection, formazan growth assay. Briefly: NCI AIDS Antiviral Assay. The note with it: for IC50: measured here: growth of uninfected CEM cells. In outline:
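Category rules: moderately active means at least 50% protection on retest, and confirmed active means 100% protection reproducibly. The underlying data came from a formazan growth assay in HIV-1-infected CEM cells.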

Molecules are shown by their SMILES. Values joined by “and” are separate entries in the source; they are usually repeats but may differ in a detail not shown here. Equal entries are not always repeated. Active and inactive are the calls of the source.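 How the source made its calls: active means compounds giving half or more protection of infected cells from virus-caused growth loss, again on retest; inactive means the rest.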

Take `COc1cc(C2c3cc4c(cc3OC(NNC(N)=O)C2C)OCO4)cc(OC)c1OC` (configuration not stated): the EC50 – broadly, the concentration that produces a half-maximal response – was above 200 µM and the IC50 – broadly, the point on the concentration scale where inhibition reaches its midpoint – turned out to be 0.331 µM.

With `S=C1Nc2ccccc2SC1c1ccccc1` (configuration not stated), the EC50 is above 200 µM and the IC50 was determined as 31.6 µM.

In the case of `O=C1C=C(N2CC2)C(=O)C=C1N1CC1`, the EC50 was above 0.2 µM and the IC50 stood at 0.0141 µM.

Take `CCOC(=O)/C(=C\c1cccc([N+](=O)[O-])c1)C(C)=O`: the outcome was inactive.

Consider `CC1=[N+]([O-])C2(CCCC2)N(O)C1(C)C`, for which the EC50 is above 200 µM and the IC50 is above 200 µM.

Consider `Cn1c(=O)c2nc3c(=O)n(C)c(=O)n(CC(N)=O)c3nc2n(C)c1=O`, for which the EC50 was above 200 µM and the IC50 was above 200 µM.

Take `Cc1cccc(NC(=S)N/N=C(/c2ccccc2)c2ccccn2)c1`: the EC50 was above 0.2 µM and the IC50 was 0.0933 µM.

Turning to `Cn1c2c(c3ccccc31)CCN(CCCCN1CCc3c(n(C)c4ccccc34)C1=O)C2`, the EC50 is above 40.7 µM and the half-inhibitory concentration (IC50) was above 40.7 µM.

Turning to `CCN(CC)CC(O)CNc1c2ccc([N+](=O)[O-])cc2nc2cc(OC)c(OC)cc12` (configuration not stated), the result was inactive.

Consider `COc1cc(/C=C/c2nc3ccccc3nc2/C=C/c2cc(OC)c(OC)c(OC)c2)cc(OC)c1OC`, for which the EC50 is above 7.41 µM and the half-inhibitory concentration (IC50) was above 7.41 µM.

For the compound `COC(=O)C(Cc1ccc(Oc2cc(CC(NC(=O)c3ccccc3)C(=O)OC)ccc2OC)cc1)NC(=O)c1ccccc1` (configuration not stated), the EC50 was above 200 µM and the IC50 worked out at 16.6 µM.

As for `CN(C)CCCNCc1cc(N(C)C)cc(CNCCCN(C)C)n1`, the EC50 was above 200 µM and the IC50 is above 200 µM.

As to `Cc1ccccc1SSc1ccccc1C`, the outcome was inactive.

Take `Clc1ccc(/C=N/N=C/c2ccc(Cl)cc2)cc1`: the outcome was inactive.

Regarding `CN1C2C=CC1c1c(C3=NC(C)(C)CO3)cccc12` (configuration not stated), the EC50 was above 200 µM and the IC50 is above 200 µM.

Turning to `C=C1C(=O)[C@@]23C(O)C[C@@H]4C(C)(C)CCCC4(COC(C)=O)[C@@H]2[C@@H](O)C[C@@H]1[C@H]3O` (some centres not stated), the EC50 is above 631 µM; the IC50 was 1.95 µM and 1.02 µM.

For `C/C=C1\CN(C)C[C@@]2(C(=O)OC)Cc3c(n(OC)c4ccccc34)C(=O)C[C@@H]12`, the EC50 was above 135 µM and the concentration for half-maximal inhibition (IC50) was 97.7 µM.

On to `CC1=N/C(=C\c2ccc(-c3ccccc3)cc2)C(=O)O1`, for which the EC50 is above 20 µM and the IC50 is above 20 µM.

Consider `Nc1nc2cc(CNc3ccc(C(=O)NC(CCC(=O)O)C(=O)O)cc3)ccc2nc1-c1ccccc1` (configuration not stated), for which the EC50 is above 200 µM and the IC50 was 12.3 µM.

As to `CCOC(=O)c1ccc(CS(=O)(=O)c2ccc(N)cc2)c([N+](=O)[O-])c1`, the EC50 is above 100 µM and the 50% inhibitory concentration (IC50) was above 100 µM.

For the compound `Cc1cc(C)c(C#N)c(SSC(Cl)(Cl)Cl)n1`, the EC50 is above 200 µM and the concentration for half-maximal inhibition (IC50) is 32.4 µM.

Regarding `COc1ccc(C(=O)C(C(=O)CCC(=O)Nc2ccc(Cl)c(Cl)c2)c2ccc(OC)cc2)cc1` (configuration not stated), the EC50 was above 72.4 µM and the half-maximal inhibitory concentration (IC50) is above 72.4 µM.

As for `COC(=O)C1Cc2cc3c(cc2C1=O)CCCC3` (configuration not stated), the EC50 is above 1000 µM and the IC50 came out at 66.1 µM.

Turning to `O=Cc1nc2ccccc2s1`, the result was inactive.

Consider `O=C(Nc1ccc2c(O)cc(S(=O)(=O)O)cc2c1)Nc1ccc2c(O)cc(S(=O)(=O)O)cc2c1`, for which the half-maximal effective concentration (EC50) is 64.6 µM and the IC50 was 155 µM.

Consider `C=Cc1ccccc1C1(O)C=CC(OC)(OC)C=C1`, for which the EC50 was above 200 µM and the half-maximal inhibitory concentration (IC50) was 7.94 µM.

Regarding `O=C(Nc1cccc([N+](=O)[O-])c1)OCc1ccc2c(c1)OCO2`, the result was inactive.

As for `O=C1c2c(O)ccc(O)c2C(=O)c2c(NCCOCCO)ccc(NCCOCCO)c21`, the EC50 is above 200 µM and the IC50 turned out to be 3.55 µM.

`Clc1ccc(-c2nnc3c4nnc(-c5ccc(Cl)cc5Cl)n4c4ccccc4n23)c(Cl)c1`: the outcome was inactive.

As for `O=c1[nH]c2ccccc2c(O)c1N=Nc1cccc(C(F)(F)F)c1`, the EC50 is above 200 µM and the IC50 was above 200 µM.

In the case of `O=P1(c2ccccc2)c2ccccc2CCc2ccccc21`, the EC50 is above 200 µM and the IC50 came to 95.5 µM.

Regarding `O=c1oc2ccccc2cc1-c1nc2ccccc2c(=O)[nH]1`, the EC50 was above 100 µM and the half-maximal inhibitory concentration (IC50) was above 100 µM.

Regarding `CCOP(=O)(OCC)/C(C#N)=C/c1ccc(Oc2ccccc2)cc1`, the EC50 was above 20.4 µM and the IC50 is above 20.4 µM.

For the compound `CN(C)Cc1cc(N=Nc2ccccc2Cl)cc(CN(C)C)c1O`, the EC50 was above 200 µM and the half-maximal inhibitory concentration (IC50) worked out at 93.3 µM.

As for `O=[N+]([O-])c1ccc(SSc2ccc([N+](=O)[O-])cn2)nc1`, the EC50 is above 200 µM and the half-inhibitory concentration (IC50) is 9.12 µM.

In the case of `CNC(=O)OCCOC(=O)c1ccc(OC(=O)NC)cc1`, the EC50 was above 200 µM and the IC50 was determined as 70.8 µM.

For `C=C1C(=O)O[C@H](c2ccoc2)C[C@@H]1[C@@]1(C)CCCC2(C)C(=O)OCC21` (some centres not stated), the EC50 is above 145 µM and the half-maximal inhibitory concentration (IC50) amounted to 95.5 µM.

Turning to `NC(=O)C(=CNc1nc(-c2cccc([N+](=O)[O-])c2)cs1)C(N)=O`, the EC50 is above 200 µM and the IC50 was above 100 µM.

With `CCOC(=O)c1nc2ccccc2nc1Oc1ccc(F)cc1`, the EC50 was above 200 µM and the concentration for half-maximal inhibition (IC50) is above 200 µM.

On to `Cn1nc(N)nc1N=S(C)(C)=N`, for which the EC50 was above 1320 µM and the IC50 is above 1320 µM.

Turning to `Cn1c(=O)c(C(c2ccccc2)c2c(O)c3ccccc3n(C)c2=O)c(O)c2ccccc21`, the EC50 is above 22.9 µM and the 50% inhibitory concentration (IC50) is above 22.9 µM.

`OC1c2c(ccc3c2CCC3)CC12Cc1ccccc1C2` (configuration not stated): the EC50 was above 200 µM and the half-maximal inhibitory concentration (IC50) was 38 µM.

Regarding `O=C(Nn1c(-c2ccccc2)nc2ccccc2c1=O)c1ccc(CS)cc1`, the outcome was inactive.

Consider `Cc1cc2c(C)nn(Cc3ccccc3)c2c(C(N)=O)c1C`, for which the result was inactive.

Turning to `NC(S(=O)(=O)O)S(=O)(=O)O`, the EC50 was above 200 µM and the half-inhibitory concentration (IC50) amounted to 91.2 µM.

For `N/N=C(\N)SCc1ccc(N=C=S)cc1`, the result was inactive.

On to `CC(C)OC(=O)c1ccc(NCc2cc(O)ccc2O)cc1`, for which the EC50 was above 200 µM and the IC50 was found to be 2.19 µM.

In the case of `CC(=N\N)/C(C)=N/N=C(C)/C(C)=N/N=C(C)/C(C)=N/N=C(C)/C(C)=N/N`, the EC50 is above 200 µM and the IC50 is 15.8 µM.

Consider `Cc1ccc2c(c1)C(=O)/C(=C\c1ccccc1)CCS2(=O)=O`, for which the EC50 is above 200 µM and the half-maximal inhibitory concentration (IC50) stood at 2.88 µM.

As to `O=c1[nH]nnc2cc(Cl)ccc12`, the EC50 is above 200 µM and the IC50 is above 200 µM.

`COc1cc2cc(C(=O)N3CC(CCl)c4c3cc(NC(=O)C(C)Nc3c([N+](=O)[O-])cc(C(=O)NCCN(C)C)cc3[N+](=O)[O-])c3ccccc43)[nH]c2c(OC)c1OC` (configuration not stated): the EC50 is above 0.1 µM and the half-maximal inhibitory concentration (IC50) turned out to be 0.0575 µM.

`CC/C(Cl)=N\OC(=O)Nc1ccc(F)cc1F`: the EC50 is above 20 µM and the half-inhibitory concentration (IC50) was 3.47 µM.

For the compound `Cc1cc(N(CCC#N)CCC#N)ccc1/C=C(\NC(=O)/C=C/c1ccccc1)C(=O)NN`, the result was inactive.

As for `O=C1c2ccccc2C2C1C(c1ccccc1)C1(Cc3ccccc3C1=O)C2c1ccccc1` (configuration not stated), the EC50 is above 200 µM and the IC50 amounted to 38.9 µM.

Regarding `CC(C)(C)C1CCC2c3c([nH]c4ccccc34)C3C(=O)N(c4ccccc4[N+](=O)[O-])C(=O)C3C2C1` (configuration not stated), the EC50 was above 200 µM and the IC50 amounted to 36.3 µM.

For the compound `Fc1ccc(-c2sc(-c3ccsc3)cc2Cc2ccsc2)cc1`, the outcome was inactive.

As for `CCOC(=O)c1nc2ccccc2nc1Nc1ccc(Cl)c(Cl)c1`, the EC50 is 151 µM and the concentration for half-maximal inhibition (IC50) was above 200 µM.

On to `CCOC(=O)c1cc(-n2nnc3ccccc32)cn1C`, for which the EC50 is above 200 µM and the IC50 is 46.8 µM.

Turning to `CC(=O)Nc1ccc(-c2nnc(SCC(=O)Nc3ccccc3Cl)o2)cc1`, the EC50 was above 46.8 µM and the IC50 is above 46.8 µM.

In the case of `COC1[C@H](NC(=O)OC(C)(C)C)C(=O)N1Cc1ccccc1` (some centres not stated), the outcome was inactive.

Regarding `CC(=O)OCC1OC(n2c3c(c(-c4ccc(Cl)cc4)c(C#N)c2=S)CCCC3)C(OC(C)=O)C(OC(C)=O)C1OC(C)=O` (configuration not stated), the EC50 was above 200 µM and the IC50 is 26.3 µM.

Take `N#Cc1nc(-c2cc([N+](=O)[O-])cc([N+](=O)[O-])c2)oc1N`: the EC50 was above 100 µM and the IC50 was above 100 µM.

On to `Fc1ccc(CN2COc3c(ccc4cccnc34)C2)cc1`, for which the EC50 is above 200 µM and the half-inhibitory concentration (IC50) came to 34.7 µM.

Turning to `CCC1CC[N-]CC1.CCC1CC[N-]CC1.CCC1CC[N-]CC1.CCC1CC[N-]CC1.N#C[S-].N#C[S-].[Mn]`, the EC50 was above 200 µM and the concentration for half-maximal inhibition (IC50) came out at 27.5 µM.

Take `N=C([Se])c1ncn(C2OC(CO)C(O)C2O)c1N` (configuration not stated): the EC50 was above 389 µM and the IC50 stood at 30.2 µM.

`N.N.N.N.O=S(=O)([O-])[O-].[Co+3].[OH3+].[OH3+]`: the EC50 was above 39.8 µM and the half-inhibitory concentration (IC50) stood at 38.9 µM.

In the case of `COc1ccc2c(c1)CC1Cc3cc(OC)c(OC)cc3CN1CC2` (configuration not stated), the EC50 is above 200 µM and the IC50 worked out at 23.4 µM.

In the case of `Cc1c(/C=N/N=C/c2[nH]c(C(=O)OC(C)(C)C)c(C)c2C)[nH]c(C(=O)OC(C)(C)C)c1C`, the outcome was inactive.

Turning to `C[C@H]1Oc2cc(O)c3ccc(=O)oc3c2C(=O)[C@@H]1C`, the EC50 is above 200 µM and the half-inhibitory concentration (IC50) worked out at 17 µM.

Take `CC(C)N(C(=O)C12C3C4C1(I)C1C2C3(I)C41C(=O)N(C(C)C)C(C)C)C(C)C` (configuration not stated): the EC50 is above 8.51 µM and the IC50 was above 8.51 µM.

Consider `O=C(c1ccccc1)N1CN(C(=O)c2ccccc2)CN(C(=O)c2ccccc2)C1`, for which the EC50 was above 200 µM and the IC50 was determined as 30.2 µM.

For the compound `c1ccc(N2N=NC3CCCC32N2CCCCC2)cc1` (configuration not stated), the EC50 is above 200 µM and the half-maximal inhibitory concentration (IC50) was found to be 110 µM.

On to `Cn1c(=O)c2c(nc3sc4nc5ccccc5nc4n32)n(C)c1=O`, for which the EC50 is above 200 µM and the IC50 was above 200 µM.
